Results from US20230398130A1, “METHODS AND COMPOSITIONS FOR DIFFERENTIATING STEM CELLS” (Massachusetts Institute of Technology, priority 2020, published 2023).

How the values were obtained:
[1] = system: ISC-enriched organoids; assay: Primary screen, 384-well 2.5-D organoid differentiation (ENR+CD, 6 days): carbachol-induced lysozyme secretion (LYZ.S); type: cell-based, murine; conditions: primary screen, FC vs plate median
Description: (§1) High-throughput screening.

[2] = system: ISC-enriched organoids; assay: Primary screen, 384-well 2.5-D organoid differentiation (ENR+CD, 6 days): basal lysozyme secretion (LYZ.NS); type: cell-based, murine; conditions: for Dose.FC.LYZ.NS: primary screen, FC vs plate median; for Z.LYZ.NS: standard z score of FC
Description: as §1

[3] = system: ISC-enriched organoids; assay: Primary screen, 384-well 2.5-D organoid differentiation (ENR+CD, 6 days, Target Selective Inhibitor Library, vs whole-plate median): ATP (CellTiter-Glo 3D, CTG); conditions: for Dose.FC.CTG: primary screen, FC vs plate median; for Z.CTG: standard z score of FC

Row | SMILES | Dose.FC.LYZ.S ([1]; Dose 0.08 uM) | Dose.FC.LYZ.S ([1]; Dose 0.40 uM) | Dose.FC.LYZ.S ([1]; Dose 2.00 uM) | Dose.FC.LYZ.S ([1]; Dose 10.00 uM) | Dose.FC.LYZ.NS ([2]; Dose 0.08 uM) | Z.LYZ.NS ([2]; Dose 0.08 uM) | Dose.FC.LYZ.NS ([2]; Dose 0.40 uM) | Z.LYZ.NS ([2]; Dose 0.40 uM) | Dose.FC.LYZ.NS ([2]; Dose 2.00 uM) | Z.LYZ.NS ([2]; Dose 2.00 uM) | Dose.FC.LYZ.NS ([2]; Dose 10.00 uM) | Z.LYZ.NS ([2]; Dose 10.00 uM) | Dose.FC.CTG ([3]; Dose 0.08 uM) | Z.CTG ([3]; Dose 0.08 uM) | Dose.FC.CTG ([3]; Dose 0.40 uM) | Z.CTG ([3]; Dose 0.40 uM) | Dose.FC.CTG ([3]; Dose 2.00 uM) | Z.CTG ([3]; Dose 2.00 uM) | Dose.FC.CTG ([3]; Dose 10.00 uM) | Z.CTG ([3]; Dose 10.00 uM)
1 | O=c1cc(N2CCOCC2)oc2c1ccc1ccccc12 [NU7026] | 0.021 log 2 fold change | 0.034 log 2 fold change | −0.056 log 2 fold change | −0.198 log 2 fold change | 0.023 log 2 fold change | 0.198 | 0.023 log 2 fold change | 0.198 | −0.058 log 2 fold change | −0.507 | −0.158 log 2 fold change | −1.380 | 0.096 log 2 fold change | 0.230 | 0.104 log 2 fold change | 0.248 | 0.107 log 2 fold change | 0.255 | −0.119 log 2 fold change | −0.284
2 | Nc1ncnc2c1c(-c1cccc(OCc3ccccc3)c1)cn2C1CC(CN2CCCC2)C1 (stereo not shown) [NVP-ADW742] | 0.245 log 2 fold change | 0.265 log 2 fold change | −0.166 log 2 fold change | −0.210 log 2 fold change | 0.142 log 2 fold change | 1.239 | 0.172 log 2 fold change | 1.499 | −0.095 log 2 fold change | −0.823 | −0.135 log 2 fold change | −1.172 | 0.679 log 2 fold change | 1.622 | 0.663 log 2 fold change | 1.583 | 0.257 log 2 fold change | 0.614 | −0.465 log 2 fold change | −1.112
3 | CN1C(=O)C(Cc2c[nH]c3ccccc23)NC1=S (stereo not shown) [Necrostatin-1] | 0.077 log 2 fold change | 0.038 log 2 fold change | 0.092 log 2 fold change | 0.229 log 2 fold change | 0.060 log 2 fold change | 0.524 | 0.020 log 2 fold change | 0.174 | 0.154 log 2 fold change | 1.338 | 0.057 log 2 fold change | 0.496 | 0.102 log 2 fold change | 0.244 | 0.168 log 2 fold change | 0.401 | 0.011 log 2 fold change | 0.027 | 0.137 log 2 fold change | 0.328
4 | C#Cc1cccc(Nc2ncnc3cc(OCCOC)c(OCCO)cc23)c1 [OSI-420] | 0.059 log 2 fold change | −0.221 log 2 fold change | −0.381 log 2 fold change | −0.374 log 2 fold change | 0.115 log 2 fold change | 1.002 | −0.224 log 2 fold change | −1.948 | −0.287 log 2 fold change | −2.498 | −0.325 log 2 fold change | −2.833 | 0.106 log 2 fold change | 0.254 | −0.130 log 2 fold change | −0.311 | −1.263 log 2 fold change | −3.016 | −1.100 log 2 fold change | −2.627
5 | C[C@]1(O)C[C@@H](c2nc(-c3ccc4ccc(-c5ccccc5)nc4c3)c3c(N)nccn32)C1 [OSI-906 (Linsitinib)] | −0.026 log 2 fold change | −0.119 log 2 fold change | −0.288 log 2 fold change | −0.328 log 2 fold change | 0.013 log 2 fold change | 0.110 | −0.093 log 2 fold change | −0.806 | −0.216 log 2 fold change | −1.882 | −0.229 log 2 fold change | −1.996 | −0.324 log 2 fold change | −0.775 | −0.158 log 2 fold change | −0.377 | −0.277 log 2 fold change | −0.661 | −0.391 log 2 fold change | −0.934
